Laboratory results from patent US20040006236A1, “Diaminopropionic acid derivatives” (priority 1999, published 2004).
pIC50: −log10 of the molar value.

Columns and labels:
[1] = test system: Mac-1 and LFA-1-mediated neutrophil binding to immobilized ICAM-1; assay: Neutrophil (Mac-1 and LFA-1)/ICAM-1 cell-based screening assay; conditions: human neutrophils
Description: Both Mac-1 and LFA-1 are expressed on the cell surface of neutrophils. The ability of antagonists to inhibit Mac-1 and LFA-1-mediated neutrophil binding to immobilized ICAM-1 was quantitated by a cell based assay. Typically, fusion protein consisting of the entire extracellular domain of human ICAM-1 and the Fc domain of human IgG (5dICAM-Ig) was coated onto 96 well microtiter plates (1 μg in 100 μL TBS) overnight at 4° C. The plates were then blocked with 150 μL of 10% PVP in TBS for 1 h at 37° C. Plates were washed 3 times (150 μL each) with TBS. Human neutrophils were purified from whole blood from healthy volunteers using LSM (ICN). Cells (8×10^6/mL) were fluorescently labeled with 6-carboxyfluorescein (100 μg/mL) for 40 min in IMDM/1 mM MgCl2/1.2 mM CaCl2 as described in Example 287. Cells (8×10^6/mL) were stimulated with f-Met-Leu-Phe (10 μM) for 5 min at room temperature just prior to being used in the assay, and diluted to 2×10^6 cells/mL with RPMI/0.05% BSA/0.2 mM MnCl2. Stock solutions (10 mM) of test compounds were diluted to 2.5 mM with DMSO. A series of 1:4 dilutions in DMSO were performed to achieve a concentration range of 38.2 nM-2.5 mM. Each sample was further diluted 50-fold with RPMI/0.05% BSA/0.2 mM MnCl2. Equal volumes of labeled cells were then added to assay tubes containing diluted compound. Final concentrations of compound tested in the assay ranged from 0.38 nM-25 μM with a cell concentration of 1×10^6 per mL. Cells were incubated for 10 min at 37° C. with gentle shaking, then dispensed (100 μL per well) onto ICAM-1 coated plates and incubated for 30 min at 37° C./5% CO2. Unbound cells were washed and plates were read on a Cytofluor™ 2300 (Millipore) as described in Example 384.

[2] = target: T1, LFA-1 binding to immobilized ICAM-1 (Homo sapiens, UniProt P05107+P20701); assay: LFA-1/ICAM-1 protein-protein assay (solid-phase ELISA); conditions: read-out: LFA-1/ICAM-1 Protein-Protein Assay IC50
T1 construct: made in house; host or cells: transfected 293 cells (LFA-1)
Summary of the method: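 Human 5dICAM-Ig (ICAM-1 extracellular domain–IgG Fc) coated on plates; membrane-bound LFA-1 from transfected 293 cells (280 ng/mL) added with compound in Mn2+-containing HEPES buffer pH 7.2, 2 h at 37° C. Bound LFA-1 detected via anti-β2 antibody and HRP/TMB at 450 nm; IC50s determined.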

T1 sequence (P20701 26-1170): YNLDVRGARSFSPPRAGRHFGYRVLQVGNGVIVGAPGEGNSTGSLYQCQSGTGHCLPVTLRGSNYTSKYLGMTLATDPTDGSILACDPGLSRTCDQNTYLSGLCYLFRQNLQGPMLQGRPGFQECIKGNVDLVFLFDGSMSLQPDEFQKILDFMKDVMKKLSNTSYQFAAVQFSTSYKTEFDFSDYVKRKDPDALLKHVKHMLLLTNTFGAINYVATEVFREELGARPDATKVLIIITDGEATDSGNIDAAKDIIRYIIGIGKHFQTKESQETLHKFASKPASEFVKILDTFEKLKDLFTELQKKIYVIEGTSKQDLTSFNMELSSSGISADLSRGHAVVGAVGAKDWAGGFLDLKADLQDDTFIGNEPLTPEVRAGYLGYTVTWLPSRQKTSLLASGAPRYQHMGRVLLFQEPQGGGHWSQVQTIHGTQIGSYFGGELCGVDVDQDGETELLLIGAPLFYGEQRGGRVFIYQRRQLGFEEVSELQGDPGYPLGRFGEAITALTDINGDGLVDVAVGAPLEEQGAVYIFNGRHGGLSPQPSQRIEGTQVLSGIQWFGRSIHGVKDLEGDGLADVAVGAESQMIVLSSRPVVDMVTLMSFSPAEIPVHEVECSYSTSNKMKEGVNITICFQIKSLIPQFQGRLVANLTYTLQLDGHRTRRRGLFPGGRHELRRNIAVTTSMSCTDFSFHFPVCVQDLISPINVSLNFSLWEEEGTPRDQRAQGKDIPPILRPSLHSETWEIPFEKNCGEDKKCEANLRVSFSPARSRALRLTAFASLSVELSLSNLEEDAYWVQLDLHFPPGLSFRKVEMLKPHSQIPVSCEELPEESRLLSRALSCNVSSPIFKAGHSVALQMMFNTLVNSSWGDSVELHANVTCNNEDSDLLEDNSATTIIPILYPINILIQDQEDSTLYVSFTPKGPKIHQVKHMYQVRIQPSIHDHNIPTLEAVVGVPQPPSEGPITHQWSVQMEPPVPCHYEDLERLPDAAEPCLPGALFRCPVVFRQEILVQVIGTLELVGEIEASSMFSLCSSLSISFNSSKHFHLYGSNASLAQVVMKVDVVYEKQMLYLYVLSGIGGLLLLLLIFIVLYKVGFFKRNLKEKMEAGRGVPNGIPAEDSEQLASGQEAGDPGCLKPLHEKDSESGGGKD
T1 sequence (P05107 23-769): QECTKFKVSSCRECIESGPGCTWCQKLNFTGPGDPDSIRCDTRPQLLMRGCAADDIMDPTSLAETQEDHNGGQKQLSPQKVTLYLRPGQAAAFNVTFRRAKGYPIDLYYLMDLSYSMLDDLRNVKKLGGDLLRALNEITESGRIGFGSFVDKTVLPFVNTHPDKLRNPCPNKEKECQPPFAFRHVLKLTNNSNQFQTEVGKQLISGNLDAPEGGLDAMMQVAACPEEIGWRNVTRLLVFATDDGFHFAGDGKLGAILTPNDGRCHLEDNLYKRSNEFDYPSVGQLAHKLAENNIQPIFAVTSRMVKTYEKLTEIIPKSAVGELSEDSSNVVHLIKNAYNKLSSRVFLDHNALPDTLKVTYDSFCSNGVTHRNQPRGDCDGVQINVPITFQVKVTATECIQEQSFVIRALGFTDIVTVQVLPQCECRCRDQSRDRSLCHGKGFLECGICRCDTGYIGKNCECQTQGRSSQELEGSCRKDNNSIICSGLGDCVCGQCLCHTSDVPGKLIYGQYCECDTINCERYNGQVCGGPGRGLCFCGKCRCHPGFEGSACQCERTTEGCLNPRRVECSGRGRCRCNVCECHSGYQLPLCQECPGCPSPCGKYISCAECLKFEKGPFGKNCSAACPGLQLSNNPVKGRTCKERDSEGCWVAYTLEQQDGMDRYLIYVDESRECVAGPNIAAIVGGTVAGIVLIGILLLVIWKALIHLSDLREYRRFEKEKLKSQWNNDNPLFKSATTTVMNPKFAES

pIC50 [1]	pIC50 [2]	SMILES
7.20	8.92	COc1cccc(C(=O)NC[C@H](NC(=O)c2ccc(C(=O)NCc3cccc(O)c3)cc2Cl)C(=O)O)c1 [Example 76, N-[2-chloro-4-[[[(3-hydroxyphenyl)methyl]amino]-carbonyl]benzoyl]-3-(3-methoxybenzoylamino)-L-alanine]
7.03	8.72	CC1(C(=O)NC[C@H](NC(=O)c2ccc(C(=O)NCc3cccc(O)c3)cc2Cl)C(=O)O)CCCCC1 [Example 105]
7.43	8.72	Nc1cccc(C(=O)NC[C@H](NC(=O)c2ccc(C(=O)NCc3cccc(O)c3)cc2Cl)C(=O)O)c1 [Example 118]
6.66	8.52	NS(=O)(=O)c1ccc(C(=O)NC[C@H](NC(=O)c2ccc(C(=O)NCc3cccc(O)c3)cc2Cl)C(=O)O)cc1 [Example 119]
7.68	9.10	O=C(NCc1cccc(O)c1)c1ccc(C(=O)N[C@@H](CNC(=O)c2cccc(Cl)c2)C(=O)O)c(Cl)c1 [Example 123]
7.57	9.10	O=C(NCc1cccc(O)c1)c1ccc(C(=O)N[C@@H](CNC(=O)c2cccc(F)c2)C(=O)O)c(Cl)c1 [Example 131]
8.31	9.22	O=C(NCc1cccc(O)c1)c1ccc(C(=O)N[C@@H](CNC(=O)c2cccc(O)c2)C(=O)O)c(Cl)c1 [Example 132]
7.51	9.15	Cc1cccc(C(=O)NC[C@H](NC(=O)c2ccc(C(=O)NCc3cccc(O)c3)cc2Cl)C(=O)O)c1 [Example 138]
7.19	9.15	O=C(NCc1cccc(O)c1)c1ccc(C(=O)N[C@@H](CNC(=O)c2ccc(Br)s2)C(=O)O)c(Cl)c1 [Example 155]
7.64	9.05	Cc1ccc(C(=O)NC[C@H](NC(=O)c2ccc(C(=O)NCc3cccc(O)c3)cc2Cl)C(=O)O)s1 [Example 160]
7.36	9.00	O=C(NCc1cccc(O)c1)c1ccc(C(=O)N[C@@H](CNC(=O)c2ccsc2)C(=O)O)c(Cl)c1 [Example 161]
8.01	8.68	C[C@@H](NC(=O)c1cc(Cl)c(C(=O)N[C@@H](CNC(=O)c2cccs2)C(=O)O)c(Cl)c1)c1cccc2ccccc12 [Example 346, N-[2,6-dichloro-4-[[[(1R)-1-(1-naphthalenyl)ethyl]amino]carbonyl]benzoyl]-3-[(thiophene-2-carbonyl)amino]-L-alanine]
7.79	8.47	C[C@@H](NC(=O)c1cc(Cl)c(C(=O)N[C@@H](CNC(=O)c2ccccc2)C(=O)O)c(Cl)c1)c1cccc2ccccc12 [Example 347]
8.33	8.96	O=C(NCc1cccc(O)c1)c1cc(Cl)c(C(=O)N[C@@H](CNC(=O)c2cccc(F)c2)C(=O)O)c(Cl)c1 [Example 349]
9.15	9.00	O=C(NCc1cccc(O)c1)c1cc(Cl)c(C(=O)N[C@@H](CNC(=O)c2cccc(O)c2)C(=O)O)c(Cl)c1 [Example 350]
8.57	9.10	COc1ccc(C(=O)NC[C@H](NC(=O)c2c(Cl)cc(C(=O)NCc3cccc(O)c3)cc2Cl)C(=O)O)cc1O [Example 351]
7.73	8.80	O=C(NCc1cccc(O)c1)c1cc(Cl)c(C(=O)N[C@@H](CNC(=O)c2sccc2Br)C(=O)O)c(Cl)c1 [Example 353]
8.33	9.00	O=C(NCc1cccc(O)c1)c1cc(Cl)c(C(=O)N[C@@H](CNC(=O)c2ccc(Br)s2)C(=O)O)c(Cl)c1 [Example 354]
8.37	9.70	Cc1ccc(C(=O)NC[C@H](NC(=O)c2c(Cl)cc(C(=O)NCc3cccc(O)c3)cc2Cl)C(=O)O)s1 [Example 358]
